Reference: PubChem BioAssay AID248 (DTP/NCI, 2004)
“And” between values parts separate entries of the source, which are not always exact repeats. Equal entries are not always repeated. Inconclusive results and toxic doses are left out. Cut-off read from the data, not from the text of the source: active = T/C of 150% or more; inactive = T/C below 125%.

Test system: L1210 leukemia ip in BDF1 mice, survival T/C
Experiment: NCI In Vivo Anticancer Drug Screen. Data for tumor model L1210 Leukemia (intraperitoneal) in B6D2F1 (BDF1) mice
Conditions: endpoint: mean survival time, higher = longer survival
How it was run: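 Antitumor effect is assessed in tumor-bearing animals. Survival in the compound arm is compared with a vehicle-dosed control arm and expressed as their quotient.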

[1] = dose: 100.0 mg/kg/injection, schedule: Q01DX009 (ip), vehicle: Klucel (hydroxypropylcellulose) (HPC)
[2] = dose: 200.0 mg/kg/injection, schedule: Q01DX009 (ip), vehicle: Klucel (hydroxypropylcellulose) (HPC)
[3] = dose: 400.0 mg/kg/injection, schedule: Q01DX009 (ip), vehicle: Klucel (hydroxypropylcellulose) (HPC)
[4] = dose: 100.0 mg/kg/injection, schedule: Q04DX002 (ip), vehicle: Klucel (hydroxypropylcellulose) (HPC)
[5] = dose: 200.0 mg/kg/injection, schedule: Q04DX002 (ip), vehicle: Klucel (hydroxypropylcellulose) (HPC)
[6] = dose: 400.0 mg/kg/injection, schedule: Q04DX002 (ip), vehicle: Klucel (hydroxypropylcellulose) (HPC)
[7] = dose: 50.0 mg/kg/injection, schedule: Q04DX003 (ip), vehicle: Klucel (hydroxypropylcellulose) (HPC)
[8] = dose: 100.0 mg/kg/injection, schedule: Q01DX009 (ip), vehicle: saline
[9] = dose: 100.0 mg/kg/injection, schedule: Q04DX003 (ip), vehicle: Klucel (hydroxypropylcellulose) (HPC)
[10] = dose: 200.0 mg/kg/injection, schedule: Q01DX009 (ip), vehicle: saline
[11] = dose: 200.0 mg/kg/injection, schedule: Q04DX003 (ip), vehicle: Klucel (hydroxypropylcellulose) (HPC)
[12] = dose: 100.0 mg/kg/injection, schedule: Q04DX003 (ip), vehicle: saline
[13] = dose: 200.0 mg/kg/injection, schedule: Q04DX003 (ip), vehicle: saline
[14] = dose: 400.0 mg/kg/injection, schedule: Q01DX009 (ip), vehicle: saline
[15] = dose: 400.0 mg/kg/injection, schedule: Q04DX003 (ip), vehicle: saline
[16] = dose: 100.0 mg/kg/injection, schedule: Q04DX002 (ip), vehicle: saline with Tween-80
[17] = dose: 200.0 mg/kg/injection, schedule: Q04DX002 (ip), vehicle: saline with Tween-80
[18] = dose: 75.0 mg/kg/injection, schedule: Q01DX001 (ip), vehicle: saline
[19] = dose: 100.0 mg/kg/injection, schedule: Q01DX009 (ip), vehicle: saline with Tween-80
[20] = dose: 200.0 mg/kg/injection, schedule: Q01DX009 (ip), vehicle: saline with Tween-80
[21] = dose: 400.0 mg/kg/injection, schedule: Q04DX003 (ip), vehicle: Klucel (hydroxypropylcellulose) (HPC)

Measured: T/C

O=C(Nc1ccc(C2=NC3CCCCC3N2)cc1)c1ccc(C(=O)Nc2ccc(C3=NC4CCCCC4N3)cc2)cc1 (stereo not given)
inactive: dose: 15.0 mg/kg/injection, schedule: Q01DX Z (ip), vehicle: carboxymethylcellulose (CMC) 96 % of control | dose: 30.0 mg/kg/injection, schedule: Q01DX Z (ip), vehicle: carboxymethylcellulose (CMC) 92 % of control | dose: 60.0 mg/kg/injection, schedule: Q01DX Z (ip), vehicle: carboxymethylcellulose (CMC) 96 % of control | dose: 120.0 mg/kg/injection, schedule: Q01DX Z (ip), vehicle: carboxymethylcellulose (CMC) 103 % of control

O=P(NC12CC3CC(CC(C3)C1)C2)(Oc1ccccc1Cl)Oc1ccccc1Cl
inactive: [1] 101 % of control | [2] 101 % of control | [3] 95 % of control

CC(=O)OC1CCCCC1N (stereo not given)
inactive: dose: 100.0 mg/kg/injection, schedule: Q04DX002 (ip), vehicle: saline 100 % of control and 91 % of control | dose: 200.0 mg/kg/injection, schedule: Q04DX002 (ip), vehicle: saline 92 % of control and 103 % of control | dose: 400.0 mg/kg/injection, schedule: Q04DX002 (ip), vehicle: saline 103 % of control and 114 % of control

O=C(O)/C=C/SCc1ccccc1
inactive: [4] 97 % of control | [5] 90 % of control | [6] 97 % of control

O=C1COC(=O)CO1
inactive: [7] 104 % of control | [8] 86 % of control | [9] 100 % of control | [10] 86 % of control | [11] 96 % of control

Cc1cc[n+](CCC(N)=O)cc1
inactive: [8] 95 % of control | [12] 93 % of control | [10] 93 % of control | [13] 98 % of control | [14] 93 % of control | [15] 102 % of control

Cl/C(=C/C=C(c1ccccc1)c1ccccc1)c1ccccc1
inactive: [16] 88 % of control | [17] 88 % of control

CC1CCC(NCCOC(=O)c2ccc(N)cc2)CC1 (stereo not given)
inactive: dose: 75.0 mg/kg/injection, schedule: Q01DX001 (ip), vehicle: other 94 % of control | dose: 150.0 mg/kg/injection, schedule: Q01DX001 (ip), vehicle: other 108 % of control

CCOC(=O)c1cc(C)[nH]c1C
inactive: dose: 100.0 mg/kg/injection, schedule: Q01DX009 (ip), vehicle: gum acacia 100 % of control | dose: 200.0 mg/kg/injection, schedule: Q01DX009 (ip), vehicle: gum acacia 95 % of control | dose: 400.0 mg/kg/injection, schedule: Q01DX009 (ip), vehicle: gum acacia 105 % of control

CCCCCCCCCCCCCCCCS(=O)(=O)N/N=C/c1ccc(N(C)C)cc1
inactive: dose: 100.0 mg/kg/injection, schedule: Q01DX001 (ip), vehicle: carboxymethylcellulose (CMC) 92 % of control | dose: 200.0 mg/kg/injection, schedule: Q01DX001 (ip), vehicle: carboxymethylcellulose (CMC) 87 % of control | dose: 400.0 mg/kg/injection, schedule: Q01DX001 (ip), vehicle: carboxymethylcellulose (CMC) 89 % of control

CCOP(=O)(OCC)c1cccc(Cl)c1
inactive: [18] 101 % of control

CCOC(=O)C(O)(CC)CC
inactive: [8] 96 % of control | [12] 93 % of control | [10] 101 % of control | [13] 93 % of control | [14] 102 % of control | [15] 95 % of control

O=c1nc(-c2ccccc2)c(-c2ccccc2)n[nH]1
inactive: dose: 50.0 mg/kg/injection, schedule: Q01DX009 (ip), vehicle: saline with Tween-80 91 % of control | [19] 98 % of control | [9] 107 % of control | [20] 98 % of control | [11] 100 % of control | [21] 102 % of control

CC(C)(C)NC(N)=O
inactive: [8] 100 % of control | [10] 97 % of control | [14] 100 % of control

CCOC(=O)N/N=C/c1cccc([N+](=O)[O-])c1
inactive: [18] 104 % of control | dose: 150.0 mg/kg/injection, schedule: Q01DX001 (ip), vehicle: saline 100 % of control | dose: 300.0 mg/kg/injection, schedule: Q01DX001 (ip), vehicle: saline 101 % of control

Oc1ccc2ccccc2c1/C=N\Nc1ccccn1
inactive: [16] 92 % of control | [17] 92 % of control | dose: 400.0 mg/kg/injection, schedule: Q04DX002 (ip), vehicle: saline with Tween-80 89 % of control

O=C1NC(=O)C2(CCc3ccccc32)N1 (stereo not given)
inactive: dose: 50.0 mg/kg/injection, schedule: Q01DX009 (ip), vehicle: Klucel (hydroxypropylcellulose) (HPC) 105 % of control | [1] 100 % of control | [9] 108 % of control | [2] 98 % of control | [11] 100 % of control | [21] 94 % of control

COC(=O)C(c1ccccc1)C(Br)C(=O)c1ccccc1 (stereo not given)
inactive: [1] 86 % of control | [9] 97 % of control | [2] 86 % of control | [11] 102 % of control | [3] 86 % of control | [21] 95 % of control

Nc1ccccc1CCc1ccccc1
inactive: [4] 103 % of control | [5] 100 % of control | [6] 100 % of control

CCc1cc(C)cc(OC(=O)Nc2cccc(Cl)c2)c1
inactive: [19] 88 % of control | [20] 90 % of control

COc1cc2c(cc1OC)C(CCN1C(=O)c3ccccc3C1=O)=NCC2
inactive: dose: 25.0 mg/kg/injection, schedule: Q01DX009 (ip), vehicle: saline 97 % of control | dose: 50.0 mg/kg/injection, schedule: Q01DX009 (ip), vehicle: saline 101 % of control | [12] 97 % of control

Nc1cccc(/C=C/c2ccncc2)c1
inactive: [1] 97 % of control | [2] 94 % of control | [3] 95 % of control

CC1(C)CN=C(SC(=O)c2ccc([N+](=O)[O-])cc2)S1
inactive: dose: 100.0 mg/kg/injection, schedule: Q04DX002 (ip), vehicle: gum acacia 100 % of control | dose: 200.0 mg/kg/injection, schedule: Q04DX002 (ip), vehicle: gum acacia 93 % of control | dose: 400.0 mg/kg/injection, schedule: Q04DX002 (ip), vehicle: gum acacia 93 % of control

CCCCCCCCCCCCCCCCCC(=O)N/N=C/C(=C\c1ccccc1)CCCCCC
inactive: [1] 90 % of control | [2] 98 % of control | [3] 93 % of control

O=[N+]([O-])c1ccc(N=C=S)cc1
inactive: dose: 25.0 mg/kg/injection, schedule: Q04DX003 (ip), vehicle: Klucel (hydroxypropylcellulose) (HPC) 95 % of control | [7] 95 % of control | [9] 93 % of control

CCCCN=C1NC(N)=NC(C)(C)N1
inactive: dose: 100.0 mg/kg/injection, schedule: Q01DX001 (ip), vehicle: Klucel (hydroxypropylcellulose) (HPC) 98 % of control | dose: 200.0 mg/kg/injection, schedule: Q01DX001 (ip), vehicle: Klucel (hydroxypropylcellulose) (HPC) 102 % of control

C/C(=N/Nc1ccc([N+](=O)[O-])cc1[N+](=O)[O-])C(C)(C)C
inactive: dose: 25.0 mg/kg/injection, schedule: Q04DX002 (ip), vehicle: Klucel (hydroxypropylcellulose) (HPC) 87 % of control | dose: 50.0 mg/kg/injection, schedule: Q04DX002 (ip), vehicle: Klucel (hydroxypropylcellulose) (HPC) 93 % of control | [4] 101 % of control and 90 % of control | [5] 97 % of control | [6] 93 % of control
